Reference: patent publication US10314804B2, “Composition containing norbixin for protecting cells of the retinal pigment epithelium” (BIOPHYTIS, priority 2015, dated 2019)
“Also recorded” adds a separate entry of the source. Where two headings read alike, the source gives them in different places. Blank lines part the entries; values can stand above or below the molecule they belong to.

Columns and labels:
[1] = system: primary cultures of adult pig RPE; test: in vitro photoprotection test: RPE cells with A2E, blue light illumination, cell survival; format: cell-based; settings: 20 μM (extract diluted to provide 20 μM of bixin), FIG. 1
Procedure: The term “blue radiation” is intended to mean the radiation corresponding to the blue band of the visible light spectrum, that is to say having a wavelength of between 435 and 490 nm. This model uses primary cultures of adult pig RPE. The cell survival is quantified by means of a cell viability test. At −48 h, the compounds to be tested (in 5 mM solution in DMSO) are added so as to obtain final concentrations of 1 to 20 μM), then at −19 h, A2E is added (final concentration 30 μM) and the cells are irradiated (time 0 h). 24 h later, the cell survival is measured. The acquisition of the images and also the processing thereof are carried out by means of a fluorescence microscope controlled by the Metamorph software and of a dedicated quantification program. The experiments are carried out on 96-well microplates in quadruplicate and the experiment is reproduced a minimum of four times. The results are expressed in the form of a ratio representing the number of live cells in the wells treated with the molecules to be tested, divided by the number of live cells in the control wells (treated with the dilution medium without A2E).

[2] = system: primary cultures of adult pig RPE; settings: cited from earlier work; for photoprotective activity on RPE cells in earlier tests (FR 11 54172): 0.1 μM, 1 μM and 10 μM
[3] = bioavailability of bixin and norbixin, plasma analysis; format: in vivo, C57Bl/6 mice; settings: for Cmax: 50 mg/kg; for AUC(0-t): read-out: AUC 0-24 h; for detection in plasma over time: after bixin ingestion
Procedure: Studies of the bioavailability of bixin and of norbixin were carried out in C57Bl/6 mice. The compounds were administered orally (50 mg/kg). Blood samples were taken after 0.25, 0.5, 1, 3, 6, 8 and 24 h and analyzed by HPLC-DAD (UV 460 nm)-MS/MS.

[4] = system: double KO mice (ABCA4−/−, RDH8−/−); test: photoprotective activity by chronic oral administration (supplemented feed, 3 months); format: in vivo
Procedure: A feed containing 0.3 mg/g of pure norbixin was prepared and given to double KO mice (ABCA4^−/−, RDH8^−/−) for a period of 3 months.

rats [5] = test: rat blue light model, intraperitoneal injection; format: in vivo; settings: 100 mg/kg i.p.
Procedure: The “rat blue light” model consists in subjecting the animals to a strong blue light for 6 hours in order to cause ocular damage that is assessed 7 days later by carrying out electroretinograms and then by histological analyses. An antioxidant compound, PBN (phenyl-N-tert-butylnitrone) is used as positive control (Ranchon et al., 2001; Tomita et al., 2005). The compounds of which it is sought to determine the photoprotective activity are injected (intraperitoneally) before and during the illumination phase. Said phase is carried out with Philips blue neon tubes (4.2 mW/cm^2) for 6 hours.
Three series of experiments were carried out with norbixin (100 mg/kg, four injections per rat of a solution at 50 mM in 9‰ NaCl, 4 rats/series) using PBN (phenyl-N-tert-butylnitrone, 50 mg/kg, solution at 20 mg/ml in 9‰ NaCl) as positive control.

rats [6] = settings: cited from earlier work
[7] = cited from earlier work
[8] = system: double KO mice (ABCA4−/−, RDH8−/−); test: photoprotective activity by intravitreal injection, blue light exposure; format: in vivo
Excerpt: A genetically modified mouse model developed by Maeda et al. (2008) was used to test the photoprotective activity of norbixin. In this mouse model, two genes involved in the visual pigment cycle (ABCA4 and RDH8) are inactivated, which results in an early accumulation of A2E in the eyes (FIG. 5). This animal model is as a result similar to the human pathological condition, with of course its limits, associated with the differences in organization of the eyes between rodents and primates. 7-week-old mice were thus used to carry out unilateral intravitreal injections of norbixin (in order to obtain a final concentration in the vitreous body of 130 μM). After 24 h in the dark, the mice were subjected to an exposure to blue light (4000 lux, 1 h).

[9] = presence of norbixin in the eyes after intraperitoneal injection; format: in vivo, double KO mice (ABCA4−/−, RDH8−/−)
Procedure: The presence of norbixin in the eyes was investigated in double KO mice (ABCA4^−/−, RDH8^−/−) 3 hours after intraperitoneal injection of norbixin (10 mg/kg). The eyes of 6 animals were dissected and the samples were extracted with acetonitrile, pooled and then analyzed by HPLC-MS/MS (FIG. 4), which made it possible to specifically detect the presence of norbixin in the RPE and the retina (table 2).
Glucuronidation had also been described in the case of crocetin (Asai et al., 2005).

neuroganglion cells = settings: Yamauchi et al., 2011; cited from earlier work
[10] = C57Bl/6, mouse, plasma, po, Bixin ingestion (50 mg/kg), analyte as labelled
[11] = C57Bl/6, mouse, po, Bixin ingestion (50 mg/kg), plasma, analyte as labelled

Cmax [3, 10]: 833 ng/mL
AUC(0-t) [3, 11]: 1670 ng·h/mL
Tmax ([3]; C57Bl/6, mouse, po, Bixin ingestion (50 mg/kg), plasma, analyte as labelled, read-out: Tmax): 30 min
detection in plasma over time ([3]; oral 50 mg/kg): no longer detected after 8 hours
conversion of ingested compound ([3]; oral 50 mg/kg): rapidly converted into norbixin
SMILES: COC(=O)/C=C/C(C)=C\C=C\C(C)=C\C=C\C=C(C)\C=C\C=C(C)\C=C\C(=O)O [bixin, methylhydrogen 6,6′-diapocarotene-6,6′-dioate]
protection of RPE cells against phototoxicity induced in the presence of A2E (cell survival) [1]: effectively protect
photoprotective activity on RPE cells in earlier tests (FR 11 54172) [2]: do not have any photoprotective activity; also recorded: ineffective

SMILES: CC(=C/C=C/C(C)=C/C=C/C=C(C)/C=C/C=C(C)/C=C/C(=O)O)/C=C/C(=O)O [norbixin]
accumulation of norbixin in the eyes ([4]; chronic treatment, feed, 3 months): no significant accumulation
A2E accumulation in the eyes ([4]; feed 0.3 mg/g, 3 months, FIG. 10): reduction in A2E accumulation
amplitude of the electroretinogram (ERG) ([4]; feed 0.3 mg/g, 3 months, FIG. 11): positive effect
daily intake that significantly slows down the retinal degeneration ([4]; mice, oral administration): 48 mg/kg of body weight
electroretinograms (A-waves and B-waves) (rats [5]; four injections, blue light 6 hours, 7 days later, FIG. 8B): significant efficacity
survival of the photoreceptors, histology (rats [5]; FIGS. 9A and 9B): confirm the photoprotective action
protection of RPE cells against phototoxicity induced in the presence of A2E (cell survival) [1]: effectively protect
intake up to which no toxicity was observed (rats [6]; rat, in vivo): 20 mg/kg/day
no observable adverse effect level (NOAEL) (rats [6]; rats): 69 mg/kg/day of body weight
photoprotective activity on RPE cells in earlier tests (FR 11 54172) [2]: do not have any photoprotective activity
acceptable daily intake (ADI) ([7]; JECFA/67/FC): at most 0.6 mg/kg/day of body weight
daily intake with no observable adverse effect level in humans, equivalent ([7]; equivalent of rat NOAEL): 11 mg/kg
elimination from the eye after intravitreal injection ([8]; 24 h after the intravitreal injection): virtually eliminated
electroretinogram (A- and B-waves) ([8]; intravitreal, 130 μM in vitreous body, blue light 4000 lux 1 h, 7 days later, FIG. 6): protective effect
thickness of the layer of external nuclei (photoreceptors), histology ([8]; intravitreal, 130 μM, FIG. 7): protective effect
Norbixin (ng/organ), Crystalline ([9]; 3 hours after i.p. 10 mg/kg, Crystalline): <LOQ
Norbixin (ng/organ), RPE ([9]; 3 hours after i.p. 10 mg/kg, RPE): 5.15 ng/organ
Norbixin (ng/organ), Retina ([9]; 3 hours after i.p. 10 mg/kg, Retina): 2.40 ng/organ
Norbixin (ng/organ), Total ([9]; 3 hours after i.p. 10 mg/kg, Total): 7.55 ng/organ
Norbixin (ng/organ), Vitreous humor ([9]; 3 hours after i.p. 10 mg/kg, Vitreous humor): <LOQ
conjugated forms in plasma and eyes ([9]; HPLC-MS/MS, FIG. 4): gives two monoglucuronides
Tmax ([3]; Bixin ingestion (50 mg/kg), plasma, analyte as labelled): Norbixin 0.5 h
Cmax [3, 10]: 649 ng/mL
Cmax ([3]; C57Bl/6, mouse, plasma, po, Norbixin ingestion (50 mg/kg)): 12400 ng/mL
bioavailability ([3]; C57Bl/6, mouse, plasma, intraperitoneal injection (5 mg/kg) versus oral administration (50 mg/kg), FIG. 3b): 55%
AUC(0-t) [3, 11]: 1340 ng·h/mL
AUC ([3]; C57Bl/6, mouse, po, Norbixin ingestion (50 mg/kg), plasma): 41600 ng·h/mL
Tmax ([3]; C57Bl/6, mouse, po, Norbixin ingestion (50 mg/kg), plasma, read-out: Tmax): 30 min
detection in plasma over time ([3]; oral 50 mg/kg): no longer detected after 8 hours

SMILES: CC(/C=C/C=C(\C)C(=O)O)=C\C=C\C=C(C)\C=C\C=C(/C)C(=O)O [crocetin, 8,8′-diapocarotene-8,8′-dioate]
protection against oxidative stress (neuroganglion cells): protects

SMILES: O=c1oc2c(O)c(O)cc3c(=O)oc4c(O)c(O)cc1c4c23 [ellagic acid]
photoprotective effect on RPE cells in earlier tests (FR 11 54172) ([2]; 10 μM and 20 μM): advantageous photoprotective effect
